Columns and labels:
[1] = test system: Wistar rats (DNCB-induced atopic dermatitis); experiment: Peripheral blood morphology in DNCB-induced atopic dermatitis rat model; assay type: in vivo
Method: Wistar rats aged 5-6 weeks (at the start of the experiment) kept under standard conditions with free access to feed and water were used for the tests. The animals were divided into 5 groups, 8 individuals in each group. To prepare 2,4-dinitrochlorobenzene (DNCB) composition inducing inflammation, DNCB was dissolved in 70% ethanol to a final concentration of 1.5% (w/v). Therapeutic composition was an ointment based on white petrolatum with 0.2% or 1.0% urolithin A added. The control ointment was white petrolatum without addition of urolithin A.
The induction of chronic atopic dermatitis involved local 9-fold infiltration with 60 μl 1.5% 2,4-dinitrochlorobenzene (DNCB) on each (external and internal) surface of the right ear over 3 weeks (3 times a week). Negative control was the right ear of rats without induction inflammation.
Treatment of atopic dermatitis with 0.2% or 1.0% urolithin composition and white petrolatum (control) or 1.0% hydrocortisone composition (positive control) was started eight days after sensitization—one day before the fourth application of DNCB. Ointments with appropriate for given group drug added were applied in a total volume of about 20 μl to each ear surface one day before and 6 hours after each DNCB application (for a period of 3 weeks). The negative control group consisted of rats without induced inflammation and treated with white petrolatum in a regimen analogous to the composition of urolithin A or hydrocortisone.
2 mL blood samples were drawn into syringes (containing heparin as an anticoagulant) from the heart under general anesthesia (isoflurane) on day 32 of the experiment. The test was conducted using the DIATRON automated hematology analyzer. Peripheral blood analysis included the assessment of morphotic elements in blood: erythrocytes, leukocytes and thrombocytes and determination of the number and percentage of different types of leukocytes—WBC as well as values of erythrocyte indicators: hemoglobin (HGB), hematocrit (HCT), mean corpuscular volume (MCV), mean corpuscular hemoglobin (MCH) and mean corpuscular hemoglobin concentration (MCHC).
The experimental results obtained were analyzed using the Statistica 7.1 program (StatSoft, Inc., Tulsa, OK, USA) and presented as mean values±SE. Statistical significance was set at P≤0.05. The results with established normal distribution in the D'Agostin and Pearson test were prepared using two- or three-factor analysis of variance (ANOVA). Parametric post-hoc analysis for individual time points was performed using the Bonferroni test.

[2] = test system: IL-8, TNF-alpha and IL-1beta; experiment: IL-8, TNF-alpha and IL-1beta production by LPS-stimulated human neutrophils (ELISA); assay type: cell-based; settings: 40 μM (FIG. 12: 5, 10 and 40 μM); LPS 100 ng/mL, 24 h; derivatives compared with urolithin A
Method: After isolation, neutrophils were suspended in RPMI 1640 medium supplemented with L-glutamine, HEPES and 10% FBS and incubated with urolithin A and its acylated derivatives (SG1, SG2, SG3, SG4, SG1_m, SG2_m, SG3_m) at a concentration of 40 μM for 1 hour before stimulation with LPS from Escherichia coli (100 ng/mL). After 24 hours, IL-8, TNF-alpha and IL-1beta levels were determined using the immunochemical ELISA method (BD biosciences). The effect on neutrophil viability was assessed using annexin V and propidium iodide staining.
The obtained results of experiments on in vitro models were analyzed using the Statistica 13 program (StatSoft, Inc., Tulsa, OK, USA) and presented as mean values±SEM. Statistical significance was set at P≤0.05. The results with established normal distribution in the D'Agostin and Pearson test were prepared using analysis of variance (ANOVA). Parametric post-hoc analysis was performed using Dunnett's test.

TNF-alpha = TNF-alpha production by macrophages from human peripheral blood monocytes (ELISA); assay type: cell-based; settings: 40 μM; LPS 100 ng/mL, 24 h; FIG. 16
Method: Monocytes were isolated from peripheral human blood by a standard method using dextran sedimentation and Ficoll Hypaque gradient centrifugation. After isolation, monocytes were suspended in RPMI 1640 medium supplemented with L-glutamine, HEPES, streptomycin, amphotericin and gentamicin, and 20% autologous serum. Cell culture was carried out under these conditions for 7 days. […] After 24h, TNF-alpha level in the medium was determined using the immunochemical ELISA method (BD biosciences). The obtained results of experiments on in vitro models were analyzed using the Statistica 13 program (StatSoft, Inc., Tulsa, OK, USA) and presented as mean values±SEM. Statistical significance was set at P≤0.05. The results with established normal distribution in the D'Agostin and Pearson test were prepared using analysis of variance (ANOVA). Parametric post-hoc analysis was performed using Dunnett's test.

[3] = Local application of urolithin A ointment on skin by volunteers; assay type: in vivo, human; settings: 1.0% urolithin A ointment in white petrolatum, 20 mg per 4 cm^2 once a day for two weeks
Method: The therapeutic composition was an ointment prepared on the base of white petrolatum with 1.0% urolithin A added. The control ointment was white petrolatum without the addition of urolithin A. 1.0% urolithin A composition and the carrier—white petrolatum was applied on washed and dried skin by volunteers themselves, at a dose of 20 mg ointment per surface 4 cm^2 daily, once a day for two weeks.
The following parameters were taken into account in the study: feeling of discomfort after application of the composition on the skin, ease of application, discoloration of the skin at the site of application, redness of the skin at the site of application of the composition, degree of drying of the treated area of the skin, sensation of pinching, burning, itching and other types of discomfort. Participants in the study determined their level of satisfaction/dissatisfaction on a 10-point scale, 0 being dissatisfaction and 10 being satisfaction with the pharmaceutical composition of the present invention.

[4] = Thermal, acid and UV stability of urolithin A (UPLC-DAD-MS); assay type: physicochemical; settings: 80 μM in deionized water or 1M HCl, 24 hours at 37° C. or 12 hours at 80° C.; UVA 365 nm 12 hours
Method: Urolithin A at 80 μM was suspended in deionized water or 1M HCl and incubated for 24 hours at 37° C. or for 12 hours at 80° C. The urolithin A solution was also irradiated for 12 hours with a UV lamp emitting UVA radiation with the maximum at 365 nm. The concentration of urolithin A after incubation was determined using the UPLC-DAD-MS method according to Piwowarski et al. 2016.

skin cells = settings: in vitro; cited from earlier work
tyrosinase = molecular target: T1, tyrosinase (Mus musculus, UniProt P11344); settings: B16 melanoma cells; cited from earlier work
T1 sequence (P11344 19-533): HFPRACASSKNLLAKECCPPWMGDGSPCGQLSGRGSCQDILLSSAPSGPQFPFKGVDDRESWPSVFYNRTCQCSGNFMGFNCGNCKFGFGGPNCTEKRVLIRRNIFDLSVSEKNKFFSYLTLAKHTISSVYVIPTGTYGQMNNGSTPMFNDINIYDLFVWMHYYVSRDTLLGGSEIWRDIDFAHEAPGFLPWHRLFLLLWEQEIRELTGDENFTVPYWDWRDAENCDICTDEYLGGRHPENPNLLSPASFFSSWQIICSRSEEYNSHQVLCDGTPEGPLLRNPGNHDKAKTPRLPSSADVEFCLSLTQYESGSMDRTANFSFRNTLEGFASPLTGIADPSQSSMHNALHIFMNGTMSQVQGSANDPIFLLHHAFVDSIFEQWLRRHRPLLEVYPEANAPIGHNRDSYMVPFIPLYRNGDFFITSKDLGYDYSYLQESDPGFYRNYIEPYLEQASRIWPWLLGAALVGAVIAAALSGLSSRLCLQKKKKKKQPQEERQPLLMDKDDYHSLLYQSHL

[5] = test system: neutrophils and macrophages; settings: cited from earlier work
[6] = day 32, 1% hydrocortisone, urolithin A 0.2 and 1%

O=c1oc2cc(O)ccc2c2ccc(O)cc12 [urolithin A]
WBC (leukocyte) level ([1]; 0.2% composition, day 32, vs petrolatum, p<0.05): reduced WBC values similar to 1% hydrocortisone | WBC (leukocyte) level ([1]; 1% composition, day 32, vs petrolatum, hydrocortisone p<0.05, urolithin A p<0.01): decrease in the WBC level | Final WBC values compared to negative control (without atopic dermatitis) ([1]; 1% hydrocortisone, urolithin A 0.2 and 1%): remained at a higher level compared to negative control groups | WBC growth inhibition compared to 1% hydrocortisone ([1]; 1% urolithin A): did not result in a significantly greater effect of WBC growth inhibition | MPV (fl), PDW (fl), PDWcv (%) ([1]; day 32): did not change | RBC, HGB, HCT, MCV ([1]; day 32): no changes | Concentration of hemoglobin in erythrocytes (MCH and MCHC) ([1]; day 32, 1% hydrocortisone (p<0.05), urolithin A 0.2 and 1.0%): this effect was not seen | Monocyte population [1, 6]: significantly inhibited the increase in the level of all three leukocyte populations | Neutrophil population [1, 6]: significantly inhibited the increase in the level of all three leukocyte populations | Lymphocyte level ([1]; day 32, 1% hydrocortisone, urolithin A 0.2 and 1%, vs petrolatum): significantly inhibited the increase in the level of all three leukocyte populations | Production of proinflammatory cytokines IL-8, TNF-alpha and IL-1beta by human neutrophils [2]: inhibition of the production of proinflammatory cytokines | Inhibition of TNF-alpha production by macrophages from human peripheral blood monocytes (TNF-alpha): most active compound | Adverse effects after skin application [3]: did not cause any adverse effects | Stability (degradation / change in chemical structure) [4]: stable | Melanin production (skin cells): reduced production of melanin | Tyrosinase activity (depigmentation) (tyrosinase): suppressing tyrosinase activity | Cytotoxic or antiproliferative activity [5]: there was not observed either cytotoxic or antiproliferative activity
